Results on 33 compounds are retold here after ChEMBL document CHEMBL4196005, “Novel butanehydrazide derivatives of purine-2,6-dione as dual PDE4/7 inhibitors with potential anti-inflammatory activity: Design, synthesis and biological evaluation” (Eur J Med Chem, 2018).

One test concerns Mus musculus. The experiment in a line: In vivo inhibition of PDE4 in Balb/c mouse assessed as plasma cAMP levels at 100 mg/kg, po after 20 mins by RIA (reference value: 80.5 pmol/ml). Type of test: functional.
Test [1] has as its target 3',5'-cyclic-AMP phosphodiesterase 4B (Homo sapiens, UniProt Q07343). The experiment in a line: Inhibition of human GST-tagged PDE4B expressed in baculovirus infected Sf9 insect cells using cAMP as substrate after 10 mins by PDE-Glo Phosphodiesterase Assay.
The target of test [2] is T1, High affinity 3',5'-cyclic-AMP phosphodiesterase 7A (Homo sapiens, UniProt Q13946). Briefly: Inhibition of human GST-tagged PDE7A expressed in baculovirus infected Sf9 insect cells using cAMP as substrate after 10 mins by PDE-Glo Phosphodiesterase Assay.
For test [3], the target named is 3',5'-cyclic-AMP phosphodiesterase 4D (Homo sapiens, UniProt Q08499). The experiment in a line: Inhibition of PDE4D3 (unknown origin) using [3H]cAMP as substrate preincubated for 5 mins followed by substrate addition and measured after 15 mins by scintillation proximity assay.
In test [4] the target is T1, High affinity 3',5'-cyclic-AMP phosphodiesterase 7A. Briefly: Inhibition of PDE7A1 (unknown origin) expressed in baculovirus infected insect cells using [3H]cAMP as substrate preincubated for 5 mins followed by substrate addition and measured after 15 mins by scintillation proximity assay.
Test [5] is described as follows: Inhibition of PDE7 in human HUT78 cell lysate using cAMP as substrate after 20 mins by scintillation proximity assay.
A short description of test [6]: Inhibition of PDE4 in human HUT78 cell lysate using cAMP as substrate after 20 mins by scintillation proximity assay.
For test [7], the target named is T1, High affinity 3',5'-cyclic-AMP phosphodiesterase 7A. The experiment in a line: Inhibition of human C-terminal FLAG-tagged PDE7A expressed in baculovirus infected Sf9 cells using [3H]-cAMP as substrate after 15 mins by scintillation proximity assay.
Test [8] is described as follows: Inhibition of human PDE4 using [3H]-cAMP as substrate after 15 mins by scintillation proximity assay.
The subject of test [9] is Rattus norvegicus. Briefly: Antiinflammatory activity in albino Wistar rat assessed as inhibition of LPS-induced TNFalpha production in plasma at 50 mg/kg, ip after 1.5 hrs by ELISA relative to control. It is filed as functional.
For test [10], the system named is Rattus norvegicus. Briefly: Antiinflammatory activity in albino Wistar rat assessed as inhibition of LPS-induced TNFalpha production in plasma at 50 mg/kg, ip after 1 hr by ELISA. It is filed as functional, organism-based.
Test [11] concerns Rattus norvegicus. The experiment in a line: Antiinflammatory activity in albino Wistar rat assessed as inhibition of LPS-induced TNFalpha production in plasma at 50 mg/kg, ip after 2 hrs by ELISA. Type of test: functional, organism-based.
Test [12] concerns the target T1, High affinity 3',5'-cyclic-AMP phosphodiesterase 7A. Briefly: Inhibition of human recombinant FLAG-tagged PDE7A expressed in African green monkey COS7 cells using [3H]cAMP as substrate after 30 mins by scintillation counting analysis. Type of test: cell-based.
Test [13] is described as follows: Inhibition of guinea pig PDE4 using [3H]cAMP as substrate after 30 mins.
A short description of test [14]: Inhibition of PDE4 (unknown origin) using [3H]-cAMP as substrate after 60 mins by scintillation proximity assay. Set-up: species or system Homo sapiens.
Test [15] can be described thus: Inhibition of human recombinant His-tagged PDE7 expressed in baculovirus infected Sf9 insect cells using [3H]-cAMP as substrate after 60 mins by scintillation proximity assay.

Calls of active or inactive are those of the source. The calls are words filed in the database; no cut-off is given here. A value given as a limit tells only on which side of the number the result lay.

T1 sequence (Q13946 whole entry): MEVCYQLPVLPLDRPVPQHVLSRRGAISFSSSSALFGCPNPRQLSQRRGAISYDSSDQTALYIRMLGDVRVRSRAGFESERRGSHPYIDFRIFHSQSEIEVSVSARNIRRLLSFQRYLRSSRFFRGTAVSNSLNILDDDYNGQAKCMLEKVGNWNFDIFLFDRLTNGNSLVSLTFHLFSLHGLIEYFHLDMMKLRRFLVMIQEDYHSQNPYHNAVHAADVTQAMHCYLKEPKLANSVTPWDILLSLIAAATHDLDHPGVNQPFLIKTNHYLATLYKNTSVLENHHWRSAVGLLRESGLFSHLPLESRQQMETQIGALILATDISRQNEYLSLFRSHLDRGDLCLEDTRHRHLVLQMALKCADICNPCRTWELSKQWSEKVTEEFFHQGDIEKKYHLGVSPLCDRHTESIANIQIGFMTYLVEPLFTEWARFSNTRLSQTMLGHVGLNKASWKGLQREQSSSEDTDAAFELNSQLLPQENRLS
Chain of 3',5'-cyclic-AMP phosphodiesterase 4B (Q07343 whole entry): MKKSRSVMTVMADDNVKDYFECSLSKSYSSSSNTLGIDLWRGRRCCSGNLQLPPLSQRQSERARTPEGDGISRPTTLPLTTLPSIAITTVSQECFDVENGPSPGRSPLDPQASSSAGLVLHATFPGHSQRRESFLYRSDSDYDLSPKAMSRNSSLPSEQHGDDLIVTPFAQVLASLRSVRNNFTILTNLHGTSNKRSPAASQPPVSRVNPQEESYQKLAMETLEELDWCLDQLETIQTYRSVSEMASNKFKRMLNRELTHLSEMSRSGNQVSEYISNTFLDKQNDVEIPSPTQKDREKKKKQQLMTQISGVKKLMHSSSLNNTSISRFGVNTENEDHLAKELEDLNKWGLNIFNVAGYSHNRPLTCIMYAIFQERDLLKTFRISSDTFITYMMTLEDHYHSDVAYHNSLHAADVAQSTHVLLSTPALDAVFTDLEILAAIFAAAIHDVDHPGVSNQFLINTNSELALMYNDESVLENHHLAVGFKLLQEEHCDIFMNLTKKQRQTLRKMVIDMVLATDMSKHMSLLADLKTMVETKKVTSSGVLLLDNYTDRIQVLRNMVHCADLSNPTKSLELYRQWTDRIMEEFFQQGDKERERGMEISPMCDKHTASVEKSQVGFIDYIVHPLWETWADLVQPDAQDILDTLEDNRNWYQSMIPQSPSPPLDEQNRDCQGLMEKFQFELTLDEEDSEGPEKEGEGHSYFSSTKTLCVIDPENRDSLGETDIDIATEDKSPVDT
Chain of 3',5'-cyclic-AMP phosphodiesterase 4D (Q08499 whole entry): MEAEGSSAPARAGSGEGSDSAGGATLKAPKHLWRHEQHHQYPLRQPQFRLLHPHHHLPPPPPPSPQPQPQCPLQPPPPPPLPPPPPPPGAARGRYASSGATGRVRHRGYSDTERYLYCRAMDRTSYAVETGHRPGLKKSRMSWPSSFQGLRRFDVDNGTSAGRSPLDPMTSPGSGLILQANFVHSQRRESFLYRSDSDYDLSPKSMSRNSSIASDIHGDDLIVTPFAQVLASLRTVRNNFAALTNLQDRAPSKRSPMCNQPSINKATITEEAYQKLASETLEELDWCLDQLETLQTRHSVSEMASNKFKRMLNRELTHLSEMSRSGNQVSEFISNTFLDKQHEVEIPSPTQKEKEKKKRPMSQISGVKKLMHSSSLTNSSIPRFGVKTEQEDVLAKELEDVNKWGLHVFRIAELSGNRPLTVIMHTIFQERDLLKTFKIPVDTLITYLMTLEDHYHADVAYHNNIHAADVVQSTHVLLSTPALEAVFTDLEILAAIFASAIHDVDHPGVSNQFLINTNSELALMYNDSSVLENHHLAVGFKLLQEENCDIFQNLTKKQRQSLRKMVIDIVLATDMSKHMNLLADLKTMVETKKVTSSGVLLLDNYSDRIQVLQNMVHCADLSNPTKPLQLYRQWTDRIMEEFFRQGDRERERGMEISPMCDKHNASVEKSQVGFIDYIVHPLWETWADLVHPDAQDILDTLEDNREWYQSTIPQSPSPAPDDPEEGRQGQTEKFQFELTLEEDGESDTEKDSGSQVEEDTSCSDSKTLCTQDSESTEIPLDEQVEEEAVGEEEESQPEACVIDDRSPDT

As to `Cn1c(=O)c2nc[nH]c2n(C)c1=O.O` [THEOPHYLLINE], the Activity in the test with Mus musculus was determined as 296.9 pmol/mL. In [1], this compound came in with an IC50 of more than 200 µM.

In test [2], `COc1ccc(C2CNC(=O)C2)cc1OC1CCCC1` (stereo not given) [ROLIPRAM] had an IC50 of more than 200 µM.

With `COc1ccc(C2=NN(C3CCCC3)C(=O)C3CC=CCC23)cc1Cl` (stereo not given), the results for the IC50 in [3] and in [4] were 0.00078 µM and 0.018 µM, respectively.

Consider `Cn1c(=O)c2c(nc(NCc3ccco3)n2CCCC(=O)N/N=C/c2ccccc2O)n(C)c1=O`, for which the IC50 in [1] is 12.5 µM; in test [2], more than 200 µM.

`COc1ccc(/C=N/NC(=O)CCCn2c(NCc3ccccc3)nc3c2c(=O)n(C)c(=O)n3C)c(O)c1`: the IC50 in test [1] came out at 44 µM; in [2] it was 52.8 µM.

Take `Cn1c(=O)c2c(nc(NCc3ccccn3)n2CCCC(=O)N/N=C/c2ccc(O)c(O)c2O)n(C)c1=O`: the IC50 in test [1] was 1.8 µM; in [2], 9.5 µM.

`CCOC(=O)c1sc(Nc2nc(N3CCC(O)CC3)cc(N3CCC(O)CC3)n2)nc1C`: the IC50 in test [5] is 0.06 µM; in [6] it was 3.2 µM.

Consider `Cn1c(=O)c2c(nc(NCc3ccccn3)n2CCCC(=O)N/N=C/c2ccccc2O)n(C)c1=O`, for which the IC50 was 7.7 µM in test [1] and more than 200 µM in test [2].

Consider `CCOc1nc2c(c(=O)n(C)c(=O)n2C)n1CCCC(=O)N/N=C/c1ccccc1OC`, for which the IC50 in [1] and in test [2] was more than 200 µM in each case.

For `CCCOc1nc2c(c(=O)n(C)c(=O)n2C)n1CCCC(=O)N/N=C/c1ccccc1`, the IC50 in [1] was found to be 51.8 µM; in test [2], 92.9 µM.

Take `Cn1c(=O)c2c(nc(NCc3ccccc3)n2CCCC(=O)N/N=C/c2ccccc2O)n(C)c1=O`: the IC50 is more than 200 µM in [1] and 33.6 µM in test [2].

For `CCCOc1nc2c(c(=O)n(C)c(=O)n2C)n1CCCC(=O)N/N=C/c1ccccc1O`, the IC50 in test [1] came out at 31.1 µM; in test [2] it was 11.7 µM.

Consider `COc1ccc(-c2cc3c(n2-c2ccc(S(=O)(=O)Nc4nc(C)cc(C)n4)cc2)CCC(N2CCN(C)CC2)C3)cc1C` (stereo not given), for which the figures for the IC50 in test [7] and in test [8] were 0.014 µM and 0.63 µM, respectively.

For `CCOc1nc2c(c(=O)n(C)c(=O)n2C)n1CCCC(=O)N/N=C/c1ccc(O)cc1O`, the IC50 in [1] amounted to 16.2 µM; in test [2], 141 µM.

As for `Cn1c(=O)c2c(nc(NCc3ccco3)n2CCCC(=O)N/N=C/c2ccc(O)c(O)c2O)n(C)c1=O`, the inhibition in vivo at 50 mg/kg with Rattus norvegicus [9] was found to be 88%. In addition, the figures for the concentration for half-maximal inhibition (IC50) in test [1] and in [2] were 7.4 µM and 3.8 µM, respectively.

Take `Cn1c(=O)c2c(ncn2CCCC(=O)N/N=C/c2ccc(O)cc2O)n(C)c1=O`: the IC50 in [1] and in test [2] was more than 200 µM each time.

Consider `COc1ccc(/C=N/NC(=O)CCCn2c(NCc3ccco3)nc3c2c(=O)n(C)c(=O)n3C)c(O)c1`, for which the IC50 is 70.8 µM in test [1] and 69.8 µM in test [2].

With `Cn1c(=O)c2c(nc(NCc3ccccc3)n2CCCC(=O)N/N=C/c2ccc(O)c(O)c2O)n(C)c1=O`, the inhibition entry in the test with Rattus norvegicus [10] and in the test with Rattus norvegicus [11] was “inactive” in each case. Also, in the test with Rattus norvegicus [9], the inhibition in vivo at 50 mg/kg is 53%. For the same compound, the values for the IC50 in [1] and in [2] were 1.9 µM and 8.1 µM, respectively.

With `CCCOc1nc2c(c(=O)n(C)c(=O)n2C)n1CCCC(=O)N/N=C/c1ccc(O)cc1O`, the IC50 is 116 µM in [1] and 56.1 µM in [2].

For the compound `Cc1ccc([N+](=O)[O-])cc1S(=O)(=O)N(C)C`, the IC50 in test [1] was 175 µM; in test [2] it was 2.1 µM.

For the compound `CCOc1cc2cc(CO)c(CO)c(-c3ccnc(-n4nc(-c5cccnc5)c5ccccc5c4=O)c3)c2cc1OCC`, the IC50 stood at 1.7 µM in test [12] and 0.00013 µM in [13].

As for `CCOc1nc2c(c(=O)n(C)c(=O)n2C)n1CCCC(=O)N/N=C/c1ccccc1O`, the IC50 was 7.9 µM in test [1] and 27.6 µM in test [2].

In the case of `CCCOc1nc2c(c(=O)n(C)c(=O)n2C)n1CCCC(=O)N/N=C/c1ccc(OC)cc1O`, the IC50 in test [1] is 47.8 µM; in test [2], 89.3 µM.

With `CC(C)Cn1c(=O)n(C)c(=O)c2[nH]cnc21` [ISOBUTYLMETHYLXANTHINE], the IC50 in [1] was determined as 28.2 µM; in [2], 85.6 µM.

Regarding `CCOC(=O)c1sc(Nc2nc(NCc3cc(OC)c(OC)c(OC)c3)cc(N3CCC(N(C)C)CC3)n2)nc1C`, the IC50 was determined as 0.003 µM in test [5] and 3 µM in [6].

`Cn1c(=O)c2c(nc(NCCc3ccccc3)n2CCCC(=O)N/N=C/c2ccccc2O)n(C)c1=O`: the half-inhibitory concentration (IC50) was determined as 26.9 µM in test [1] and 7.3 µM in [2].

Regarding `CCOc1nc2c(c(=O)n(C)c(=O)n2C)n1CCCC(=O)N/N=C/c1ccccc1`, the results for the IC50 in test [1] and in test [2] were 37 µM and 48.9 µM, respectively.

On to `Cn1c(=O)c2c(nc(NCCc3ccccc3)n2CCCC(=O)N/N=C/c2ccc(O)c(O)c2O)n(C)c1=O`, for which the inhibition in vivo at 50 mg/kg in the test with Rattus norvegicus [9] was determined as 84%. Also, the IC50 in [1] was determined as 1.4 µM; in test [2], 3.2 µM.

`Cn1c(=O)c2c(nc(NCc3ccccc3)n2CCCC(=O)N/N=C/c2ccc(O)cc2O)n(C)c1=O`: the IC50 in [1] is 5.5 µM; in test [2] it was 116 µM.

`CCC(C)(O)c1oc(=O)c2ccccc2c1-c1ccc(OC)c(OC2CCCC2)c1` (stereo not given): the IC50 in test [14] worked out at 3.8 µM; in test [15] it was 3.1 µM.

With `Cn1c(=O)c2c(ncn2CCCC(=O)N/N=C/c2ccccc2O)n(C)c1=O`, the IC50 in test [1] and in [2] was more than 200 µM in each case.

Turning to `CCOc1nc2c(c(=O)n(C)c(=O)n2C)n1CCCC(=O)N/N=C/c1ccc(OC)cc1O`, the IC50 in test [1] and in test [2] was more than 200 µM in each case.

Consider `Cn1c(=O)c2c(nc(NCc3ccco3)n2CCCC(=O)N/N=C/c2ccc(O)cc2O)n(C)c1=O`, for which the figures for the IC50 in test [1] and in [2] were 4.4 µM and 10.5 µM, respectively.
